In PMC8632988, “Inhibition of SYK and cSrc kinases can protect bone and cartilage in preclinical models of osteoarthritis and rheumatoid arthritis” (Scientific Reports, 2021):
Values joined by “and” are separate entries in the source; they are usually repeats but may differ in a detail not shown here. Identical values can stand only once.

Tested on: DBA/1 mice, CIA model
Test: Collagen-induced arthritis model in mice
Type: in vivo, mouse
Parameters: Total AUC Sum (d1-11) / Total AUC Sum (d1-11), Mean: scale not given here
Conditions: MTX 1.5 mg/kg PO; for Summed Prophylactic (Non-Enrollment) Paw Score / Total AUC Sum (d1-11), Prophylactic (Non-Enrollment) Paw Score: QD
Method: Collagen-induced arthritis (CIA) model was performed at Bolder BioPATH, USA. Study design and animal usage was approved by Bolder BioPATH’s Institutional Animal Care and Use Committee. CIA was induced in 6–7 week old male DBA/1 mice with body weight of 15–26 g (Harlan, Inc) by intradermal injection of Freund’s Complete Adjuvant (Difco) containing bovine type II collagen (Bolder BioPATH) on day 0 and again on day 21 according to the standard protocol. […] After that mice were randomized into six groups: a control group of four, vehicle group and four treatment groups of ten mice each. […] Each paw was scored daily for inflammation. Therapeutic and prophylactic paws were considered. At study termination mice were euthanized by CO2 inhalation followed by cervical dislocation. Fore paws, hind paws, and knees were removed for microscopy.
Mice were weighed on arthritis days 1, 3, 5, 7, 9, and 11 (prior to necropsy). Daily clinical scores were given for each of the paws (right front, left front, right rear, left rear) on days 1–11 using the following criteria:
After 1–2 days in fixative and 4–5 days in 5% formic acid for decalcification, tissues were trimmed, processed for paraffin embedding, sectioned at 8 µm and stained with toluidine blue. Hind paws and knees were embedded and sectioned in the frontal plane. Two joints from each animal were processed for histopathology evaluation. The joints were then scored by two independent readers as indicated below. When scoring, severity of changes as well as number of individual joints affected were considered. When only 1–3 joints of the paws or ankles out of a possibility of numerous metacarpal/metatarsal/digit or tarsal/tibiotarsal joints were affected, an arbitrary assignment of a maximum score of 1, 2 or 3 for parameters below was given depending on severity of changes. If more than 3 joints were involved, the criteria below were applied to the most severely affected/majority of joints.

[1] = all joints, QD (Group 3), group mean
[2] = all joints, QD (Group 3), individual animals

## CN(Cc1cnc2nc(N)nc(N)c2n1)c1ccc(C(=O)N[C@@H](CCC(=O)O)C(=O)O)cc1 [MTX, methotrexate, reference compound]
Day 11, group mean
  Summed Prophylactic (Non-Enrollment) Paw Score: 7.40
Day 11, individual animals
  Summed Prophylactic (Non-Enrollment) Paw Score: 6 and 5 and 4 and 14 and 10 and 8
Group mean
  Total AUC Sum (d1-11), Prophylactic (Non-Enrollment) Paw Score: 52.20
Individual animals
  Total AUC Sum (d1-11), Prophylactic (Non-Enrollment) Paw Score: 41.0 and 33.5 and 35.0 and 16.0 and 80.0 and 101.0 and 88.0 and 58.0 and 34.5
All joints, QD (Group 3)
  % inhibition, Bone Resorption score: 8%
  % inhibition, Cartilage Damage score: 3%
  % inhibition, Inflammation score: 4%
  % inhibition, Pannus score: 8%
  % inhibition, Periosteal Bone Formation score: 3%
  % inhibition, Periosteal Bone Width: 6%
  % inhibition, Summed Scores: 5%
[1]
  Histopathology Scores Bone Resorption, Mean: 1.58
  Histopathology Scores Cartilage Damage, Mean: 3.21
  Histopathology Scores Inflammation, Mean: 3.55
  Histopathology Scores Pannus, Mean: 1.58
  Histopathology Scores Periosteal Bone Formation, Mean: 1.10
  Histopathology Scores Summed Scores, Mean: 11.03
  Periosteal Bone Width (40*25x measure), Mean: 92.67 μm
[2]
  Histopathology Scores Bone Resorption: 1.17 and 1.67 and 1.08 and 1.00 and 2.33 and 1.58 and 1.25 and 1.83 and 2.25
  Histopathology Scores Cartilage Damage: 1.92 and 3.00 and 1.67 and 2.17 and 4.17 and 4.33 and 3.83 and 3.17 and 4.83
  Histopathology Scores Inflammation: 2.33 and 3.08 and 2.50 and 2.25 and 4.67 and 4.83 and 4.00 and 3.33 and 3.83
  Histopathology Scores Pannus: 1.17 and 1.67 and 1.08 and 1.00 and 2.33 and 1.58 and 1.25 and 1.83 and 2.25
  Histopathology Scores Periosteal Bone Formation: 0.83 and 1.33 and 0.50 and 1.17 and 1.50
  Histopathology Scores Summed Scores: 7.42 and 10.75 and 6.83 and 7.25 and 13.33 and 15.33 and 12.17 and 9.67 and 12.00 and 15.50
  Periosteal Bone Width (40*25x measure): 80.00 μm and 106.67 μm and 40.00 μm and 140.00 μm and 86.67 μm and 60.00 μm and 146.67 μm
therapeutic/enrollment paw score, QD (Group 3)
  % inhibition to Vehicle, Total AUC Sum (d1-11): 3%
therapeutic/enrollment paw score, QD (Group 3), group mean
  Total AUC Sum (d1-11), Mean: 61.65
therapeutic/enrollment paw score, QD (Group 3), individual animals
  Total AUC Sum (d1-11): 43 and 36 and 65 and 75 and 130 and 82 and 38 and 78
therapeutic/enrollment paws, Day 1, QD (Group 3)
  % inhibition to Vehicle, paw score Day 1: 0%
therapeutic/enrollment paws, Day 1, QD (Group 3), group mean
  Summed Therapeutic (Enrollment) Paw Score Day 1, Mean: 3.20
therapeutic/enrollment paws, Day 1, QD (Group 3), individual animals
  Summed Therapeutic (Enrollment) Paw Score Day 1: 2 and 4 and 6
therapeutic/enrollment paws, Day 2, QD (Group 3)
  % inhibition to Vehicle, paw score Day 2: 9%
therapeutic/enrollment paws, Day 2, QD (Group 3), group mean
  Summed Therapeutic (Enrollment) Paw Score Day 2, Mean: 4.30
therapeutic/enrollment paws, Day 2, QD (Group 3), individual animals
  Summed Therapeutic (Enrollment) Paw Score Day 2: 3 and 2 and 5 and 6 and 8
therapeutic/enrollment paws, Day 3, QD (Group 3)
  % inhibition to Vehicle, paw score Day 3: 12%
therapeutic/enrollment paws, Day 3, QD (Group 3), group mean
  Summed Therapeutic (Enrollment) Paw Score Day 3, Mean: 5.20
therapeutic/enrollment paws, Day 3, QD (Group 3), individual animals
  Summed Therapeutic (Enrollment) Paw Score Day 3: 4 and 3 and 5 and 7 and 9
therapeutic/enrollment paws, Day 4, QD (Group 3)
  % inhibition to Vehicle, paw score Day 4: −2%
therapeutic/enrollment paws, Day 4, QD (Group 3), group mean
  Summed Therapeutic (Enrollment) Paw Score Day 4, Mean: 6.30
therapeutic/enrollment paws, Day 4, QD (Group 3), individual animals
  Summed Therapeutic (Enrollment) Paw Score Day 4: 4 and 3 and 7 and 8 and 12 and 9
therapeutic/enrollment paws, Day 5, QD (Group 3)
  % inhibition to Vehicle, paw score Day 5: −2%
therapeutic/enrollment paws, Day 5, QD (Group 3), group mean
  Summed Therapeutic (Enrollment) Paw Score Day 5, Mean: 6.70
therapeutic/enrollment paws, Day 5, QD (Group 3), individual animals
  Summed Therapeutic (Enrollment) Paw Score Day 5: 4 and 7 and 8 and 15 and 9
therapeutic/enrollment paws, Day 6, QD (Group 3)
  % inhibition to Vehicle, paw score Day 6: −2%
therapeutic/enrollment paws, Day 6, QD (Group 3), group mean
  Summed Therapeutic (Enrollment) Paw Score Day 6, Mean: 6.70
therapeutic/enrollment paws, Day 6, QD (Group 3), individual animals
  Summed Therapeutic (Enrollment) Paw Score Day 6: 4 and 7 and 8 and 15 and 9
therapeutic/enrollment paws, Day 7, QD (Group 3)
  % inhibition to Vehicle, paw score Day 7: 0%
therapeutic/enrollment paws, Day 7, QD (Group 3), group mean
  Summed Therapeutic (Enrollment) Paw Score Day 7, Mean: 6.80
therapeutic/enrollment paws, Day 7, QD (Group 3), individual animals
  Summed Therapeutic (Enrollment) Paw Score Day 7: 5 and 4 and 7 and 8 and 15 and 9
therapeutic/enrollment paws, Day 8, QD (Group 3)
  % inhibition to Vehicle, paw score Day 8: 3%
therapeutic/enrollment paws, Day 8, QD (Group 3), group mean
  Summed Therapeutic (Enrollment) Paw Score Day 8, Mean: 6.80
therapeutic/enrollment paws, Day 8, QD (Group 3), individual animals
  Summed Therapeutic (Enrollment) Paw Score Day 8: 5 and 4 and 7 and 8 and 15 and 9
therapeutic/enrollment paws, Day 9, QD (Group 3)
  % inhibition to Vehicle, paw score Day 9: 5%
therapeutic/enrollment paws, Day 9, QD (Group 3), group mean
  Summed Therapeutic (Enrollment) Paw Score Day 9, Mean: 6.90
therapeutic/enrollment paws, Day 9, QD (Group 3), individual animals
  Summed Therapeutic (Enrollment) Paw Score Day 9: 5 and 4 and 7 and 8 and 15 and 9
therapeutic/enrollment paws, Day 10, QD (Group 3)
  % inhibition to Vehicle, paw score Day 10: 7%
therapeutic/enrollment paws, Day 10, QD (Group 3), group mean
  Summed Therapeutic (Enrollment) Paw Score Day 10, Mean: 6.90
therapeutic/enrollment paws, Day 10, QD (Group 3), individual animals
  Summed Therapeutic (Enrollment) Paw Score Day 10: 5 and 4 and 7 and 8 and 15 and 9
therapeutic/enrollment paws, Day 11, QD (Group 3)
  % inhibition to Vehicle, paw score Day 11: 7%
therapeutic/enrollment paws, Day 11, QD (Group 3), group mean
  Summed Therapeutic (Enrollment) Paw Score Day 11, Mean: 6.90
therapeutic/enrollment paws, Day 11, QD (Group 3), individual animals
  Summed Therapeutic (Enrollment) Paw Score Day 11: 5 and 4 and 7 and 8 and 15 and 9
